Assay results taken from patent publication US20060167298A1, “Sulfated diglyceride derivatives, salts thereof, and processes for their preparation” (priority 2005, published 2006).

Legend:
[1] = Surface tension of aqueous solution at 25° C.; assay type: physicochemical
[2] = Foam test: solution shaken in a graduated cylinder; assay type: physicochemical
Description: Dioctanoyl glyceride (6.88 grams; 0.02 mole), sulfamic acid (2.14 gram; 0.022 mole) and ammonium sulfamate (0.34 gram; 0.00298 mole) were heated with stirring at 120-125° C. for 3 hours. The reaction mixture was a somewhat viscous brown liquid. The reaction mixture was treated with water to make a 10% solution by weight, and centrifuged to recover unreacted diglyceride.

[3] = 0.12% aqueous solution of the product in distilled water
[4] = 0.1% by weight aqueous solution of the reaction mixture
[5] = 20 ml of the 0.1% solution shaken in a 100 ml graduated cylinder for 20 full cycles

**Q.** Which “surface tension at 25° C.” value [1, 3] does the source give for “Sodium Salt of Sulfated Dioctanoyl Glyceride [Example 5]” here?
**A.** 26.8 mN/m

**Q.** What about the “foaming (observed)” value [2, 3] of the same compound?
**A.** foam very well

**Q.** Which “surface tension at 25° C.” value ([1]; 0.4% by weight aqueous solution of the reaction mixture) does the source give for `CCCCCC(=O)OCC(COS(=O)(=O)O)OC(=O)CCCCC.N` (centres unmarked) [Example 2, Ammonium Salt of Sulfated Dihexanoyl Glyceride] here?
**A.** 31.9 mN/m

**Q.** With “Mixed Morpholinium, Ammonium Salt of Sulfated Dihexanoyl Glyceride [Example 3]” as the compound, how does the “surface tension at 25° C.” value ([1]; 0.44% aqueous solution of the reaction mixture) read?
**A.** 36.5 mN/m

**Q.** Which “surface tension at 25° C.” value ([1]; 0.42% (by weight) solution of the reaction mixture, diluted from 10% solution (pH about 9) after centrifugation) does the source give for “Mixed Sodium and Ammonium Salt of Sulfated Dihexanoyl Glyceride [Example 6 II]” here?
**A.** 35.0 mN/m

**Q.** With `CCCCCC(=O)OCC(COS(=O)(=O)O)OC(=O)CCCCC.N` (centres unmarked) [Example 6 I, Ammonium Salt of Sulfated Dihexanoyl Glyceride] as the compound, how does the “surface tension at 25° C.” value ([1]; 0.42% aqueous solution of the product) read?
**A.** 35.6 mN/m

**Q.** With “Sodium Salt of Sulfonated Didecanoyl Glyceride [Example 4]” as the compound, how does the “surface tension at 25° C.” value ([1]; 0.1 g sample of reaction mixture dissolved in distilled water, neutralized to pH about 8 with NaOH) read?
**A.** 25.9 mN/m

**Q.** Which “surface tension at 25° C.” value [1, 4] does the source give for `CCCCCCCC(=O)OCC(COS(=O)(=O)O)OC(=O)CCCCCCC.N` (centres unmarked) [Example 1 (sodium salt), Sulfated Dioctanoyl Glyceride] here?
**A.** 26.3 mN/m

**Q.** For `CCCCCCCC(=O)OCC(COS(=O)(=O)O)OC(=O)CCCCCCC.N` (centres unmarked) [Example 1 (ammonium salt), Sulfated Dioctanoyl Glyceride], which “surface tension at 25° C.” value [1, 4] is on record?
**A.** 25.4 mN/m

**Q.** And the foam persistence [2, 5]?
**A.** one hour or more

**Q.** And the foam produced [2, 5]?
**A.** 45 mL
